According to patent US6046171A, “6,11-bridged erythromycin derivatives” (priority 1998, dated 2000):
≈ marks a conversion by molar mass, not a printed value.

Key:
Format in all cases: cell-based
[1] = tested on: Staphylococcus aureus ATCC 6538P; assay: in vitro antibacterial MIC, agar dilution (BHI agar, Steers replicator); conditions: organism code AA; 35-37° C., 20 to 24 hours; unit assumed
Protocol: (§1) Representative compounds of the present invention were assayed in vitro for antibacterial activity as follows: Twelve petri dishes containing successive aqueous dilutions of the test compound mixed with 10 mL of sterilized Brain Heart Infusion (BHI) agar (Difco 0418-01-5) were prepared. Each plate was inoculated with 1:100 (or 1:10 for slow-growing strains, such as Micrococcus and Streptococcus) dilutions of up to 32 different microorganisms, using a Steers replicator block. […] In addition, a control plate, using BHI agar containing no test compound, was prepared and incubated at the beginning and end of each test.
(§2) An additional plate containing a compound having known susceptibility patterns for the organisms being tested and belonging to the same antibiotic class as the test compound was also prepared and incubated as a further control, as well as to provide test-to-test comparability.
(§3) After incubation, each plate was visually inspected. The minimum inhibitory concentration (MIC) was defined as the lowest concentration of drug yielding no growth, a slight haze, or sparsely isolated colonies on the inoculum spot as compared to the growth control.

[2] = tested on: Staphylococcus aureus A5177; assay: in vitro antibacterial MIC, agar dilution; conditions: organism code BB; 35-37° C., 20 to 24 hours; unit assumed
Protocol: as §1, §2, §3

[3] = tested on: Staphylococcus aureus 1775; assay: in vitro antibacterial MIC, agar dilution; conditions: organism code GG; 35-37° C., 20 to 24 hours; unit assumed
Protocol: as §1, §2, §3

Escherichia coli JUHL = assay: in vitro antibacterial MIC, agar dilution; conditions: organism code QQ; 35-37° C., 20 to 24 hours; unit assumed
Protocol: as §1, §2, §3

[4] = tested on: Enterococcus faecium ATCC 8Q43; assay: in vitro antibacterial MIC, agar dilution; conditions: organism code II; 35-37° C., 20 to 24 hours; unit assumed
Protocol: as §1, §2, §3

[5] = tested on: Micrococcus luteus ATCC 9341; assay: in vitro antibacterial MIC, agar dilution; conditions: organism code OO; 35-37° C., 20 to 24 hours; unit assumed
Protocol: as §1, §2, §3

[6] = tested on: Streptococcus Pheumoniae 5649; assay: in vitro antibacterial MIC, agar dilution; conditions: organism code ZZA; 35-37° C., 20 to 24 hours; unit assumed
Protocol: as §1, §2, §3

[7] = tested on: Streptococcus pyogenes PIU 2548; assay: in vitro antibacterial MIC, agar dilution; conditions: organism code NN; 35-37° C., 20 to 24 hours; unit assumed
Protocol: as §1, §2, §3

[8] = tested on: Staphylococcus aureus CMX 553; assay: in vitro antibacterial MIC, agar dilution; conditions: organism code FF; 35-37° C., 20 to 24 hours; unit assumed
Protocol: as §1, §2, §3

[9] = tested on: Streptococcus pyogenes EES61; assay: in vitro antibacterial MIC, agar dilution; conditions: organism code LL; 35-37° C., 20 to 24 hours; unit assumed
Protocol: as §1, §2, §3

Escherichia coli DC-2 = assay: in vitro antibacterial MIC, agar dilution; conditions: organism code SS; 35-37° C., 20 to 24 hours; unit assumed
Protocol: as §1, §2, §3

[10] = tested on: Streptococcus bovis A-5169; assay: in vitro antibacterial MIC, agar dilution; conditions: organism code JJ; 35-37° C., 20 to 24 hours; unit assumed
Protocol: as §1, §2, §3

[11] = tested on: Nocardia Asteroides ATCC9970; assay: in vitro antibacterial MIC, agar dilution; conditions: organism code VV; 35-37° C., 20 to 24 hours; unit assumed
Protocol: as §1, §2, §3

[12] = tested on: Mycobacterium smegmatis ATCC 114; assay: in vitro antibacterial MIC, agar dilution; conditions: organism code UU; 35-37° C., 20 to 24 hours; unit assumed
Protocol: as §1, §2, §3

[13] = tested on: Staphylococcus epidermidis 3519; assay: in vitro antibacterial MIC, agar dilution; conditions: organism code HH; 35-37° C., 20 to 24 hours; unit assumed
Protocol: as §1, §2, §3

[14] = tested on: Staphylococcus aureus CMX 642A; assay: in vitro antibacterial MIC, agar dilution; conditions: organism code DD; 35-37° C., 20 to 24 hours; unit assumed
Protocol: as §1, §2, §3

[15] = tested on: Streptococcus Pheumoniae GYR 1171; assay: in vitro antibacterial MIC, agar dilution; conditions: organism code YY; 35-37° C., 20 to 24 hours; unit assumed
Protocol: as §1, §2, §3

[16] = tested on: Staphylococcus aureus A-5278; assay: in vitro antibacterial MIC, agar dilution; conditions: organism code CC; 35-37° C., 20 to 24 hours; unit assumed
Protocol: as §1, §2, §3

[17] = tested on: Streptococcus agalactiae CMX 508; assay: in vitro antibacterial MIC, agar dilution; conditions: organism code KK; 35-37° C., 20 to 24 hours; unit assumed
Protocol: as §1, §2, §3

[18] = tested on: Micrococcus luteus ATCC 4698; assay: in vitro antibacterial MIC, agar dilution; conditions: organism code PP; 35-37° C., 20 to 24 hours; unit assumed
Protocol: as §1, §2, §3

[19] = tested on: Staphylococcus aureus NCTC10649M; assay: in vitro antibacterial MIC, agar dilution; conditions: organism code EE; 35-37° C., 20 to 24 hours; unit assumed
Protocol: as §1, §2, §3

[20] = tested on: Haemophilis Influenzae DILL AMP R; assay: in vitro antibacterial MIC, agar dilution; conditions: organism code WW; 35-37° C., 20 to 24 hours; unit assumed
Protocol: as §1, §2, §3

[21] = tested on: Streptococcus pyogenes 930; assay: in vitro antibacterial MIC, agar dilution; conditions: organism code MM; 35-37° C., 20 to 24 hours; unit assumed
Protocol: as §1, §2, §3

Escherichia coli SS = assay: in vitro antibacterial MIC, agar dilution; conditions: organism code RR; 35-37° C., 20 to 24 hours; unit assumed
Protocol: as §1, §2, §3

[22] = tested on: Streptococcus Pheumoniae ATCC6303; assay: in vitro antibacterial MIC, agar dilution; conditions: organism code XX; 35-37° C., 20 to 24 hours; unit assumed
Protocol: as §1, §2, §3

Candida albicans CCH 442 = assay: in vitro MIC, agar dilution; conditions: organism code TT; 35-37° C., 20 to 24 hours; unit assumed
Protocol: as §1, §2, §3

[23] = tested on: Streptococcus Pheumoniae 5979; assay: in vitro antibacterial MIC, agar dilution; conditions: organism code ZZ; 35-37° C., 20 to 24 hours; unit assumed
Protocol: as §1, §2, §3

| Compound | MIC [1] | MIC [2] | MIC [3] | MIC (Escherichia coli JUHL) | MIC [4] | MIC [5] | MIC [6] | MIC [7] | MIC [8] | MIC [9] | MIC (Escherichia coli DC-2) | MIC [10] | MIC [11] | MIC [12] | MIC [13] | MIC [14] | MIC [15] | MIC [16] | MIC [17] | MIC [18] | further results |
| --- | --- | --- | --- | --- | --- | --- | --- | --- | --- | --- | --- | --- | --- | --- | --- | --- | --- | --- | --- | --- | --- |
| CC[C@H]1OC(=O)[C@H](C)[C@@H](O[C@H]2C[C@@](C)(OC)[C@@H](O)[C@H](C)O2)[C@H](C)[C@@H](O[C@@H]2O[C@H](C)C[C@H](N(C)C)[C@H]2O)[C@](C)(O)C[C@@H](C)C(=O)[C@H](C)[C@@H](O)[C@]1(C)O [Ery. A, Erythromycin A, reference compound] | 0.2 µg/mL (≈ 0.273 µM) | 3.1 µg/mL (≈ 4.22 µM) | > 100 µg/mL | > 100 µg/mL | 0.05 µg/mL (≈ 0.0681 µM) | 0.05 µg/mL (≈ 0.0681 µM) | 16 µg/mL (≈ 21.8 µM) | 6.2 µg/mL (≈ 8.45 µM) | 0.39 µg/mL (≈ 0.531 µM) | 0.05 µg/mL (≈ 0.0681 µM) | > 100 µg/mL | 0.02 µg/mL (≈ 0.0273 µM) | 0.1 µg/mL (≈ 0.136 µM) | 3.1 µg/mL (≈ 4.22 µM) | 0.39 µg/mL (≈ 0.531 µM) | 0.39 µg/mL (≈ 0.531 µM) | 0.06 µg/mL (≈ 0.0818 µM) | > 100 µg/mL | 0.05 µg/mL (≈ 0.0681 µM) | 0.2 µg/mL (≈ 0.273 µM) | MIC [19]: 0.39 µg/mL (≈ 0.531 µM); MIC [20]: 4 µg/mL (≈ 5.45 µM); MIC [21]: > 100 µg/mL; MIC (Escherichia coli SS): 0.78 µg/mL (≈ 1.06 µM); MIC [22]: 0.06 µg/mL (≈ 0.0818 µM); MIC (Candida albicans CCH 442): > 100 µg/mL |
| CC[C@H]1OC(=O)[C@H](C)[C@@H](O[C@H]2C[C@@](C)(OC)[C@@H](O)[C@H](C)O2)[C@H](C)[C@@H](O[C@@H]2O[C@H](C)C[C@H](N(C)C)[C@H]2O)[C@@]2(C)C[C@@H](C)C(=O)[C@H](C)[C@H]3N(CCNC(=O)c4ccccc4CC=CCO2)C(=O)O[C@]13C [Example 24] | 0.78 µg/mL (≈ 0.814 µM) | 25 µg/mL (≈ 26.1 µM) | > 100 µg/mL | 100 µg/mL (≈ 104 µM) | 0.2 µg/mL (≈ 0.209 µM) | 0.1 µg/mL (≈ 0.104 µM) | 16 µg/mL (≈ 16.7 µM) | 12.5 µg/mL (≈ 13 µM) | 0.78 µg/mL (≈ 0.814 µM) | 0.1 µg/mL (≈ 0.104 µM) | > 100 µg/mL | 0.1 µg/mL (≈ 0.104 µM) | 0.1 µg/mL (≈ 0.104 µM) | 0.39 µg/mL (≈ 0.407 µM) | 1.56 µg/mL (≈ 1.63 µM) | 1.56 µg/mL (≈ 1.63 µM) | 0.03 µg/mL (≈ 0.0313 µM) | > 100 µg/mL | 0.1 µg/mL (≈ 0.104 µM) | 1.56 µg/mL (≈ 1.63 µM) | MIC [23]: 128 µg/mL (≈ 134 µM); MIC [19]: 1.56 µg/mL (≈ 1.63 µM); MIC [20]: 16 µg/mL (≈ 16.7 µM); MIC [21]: > 100 µg/mL; MIC (Escherichia coli SS): 6.2 µg/mL (≈ 6.47 µM); MIC [22]: 0.03 µg/mL (≈ 0.0313 µM); MIC (Candida albicans CCH 442): > 100 µg/mL |
| CC[C@H]1OC(=O)[C@H](C)[C@@H](O[C@H]2C[C@@](C)(OC)[C@@H](O)[C@H](C)O2)[C@H](C)[C@@H](O[C@@H]2O[C@H](C)C[C@H](N(C)C)[C@H]2O)[C@@]2(C)C[C@@H](C)C(=O)[C@H](C)[C@H]3N(CC(O)CCCCO2)C(=O)O[C@]13C (some centres unmarked) [Example 22] | 1.56 µg/mL (≈ 1.82 µM) | 12.5 µg/mL (≈ 14.6 µM) | > 100 µg/mL | 100 µg/mL (≈ 117 µM) | 0.2 µg/mL (≈ 0.233 µM) | 0.1 µg/mL (≈ 0.117 µM) | 16 µg/mL (≈ 18.7 µM) | 12.5 µg/mL (≈ 14.6 µM) | 1.56 µg/mL (≈ 1.82 µM) | 0.1 µg/mL (≈ 0.117 µM) | > 100 µg/mL | 0.05 µg/mL (≈ 0.0583 µM) | 0.1 µg/mL (≈ 0.117 µM) | 0.78 µg/mL (≈ 0.91 µM) | 1.56 µg/mL (≈ 1.82 µM) | 1.56 µg/mL (≈ 1.82 µM) | 0.06 µg/mL (≈ 0.07 µM) | > 100 µg/mL | 0.1 µg/mL (≈ 0.117 µM) | 0.39 µg/mL (≈ 0.455 µM) | MIC [23]: > 128 µg/mL; MIC [19]: 1.56 µg/mL (≈ 1.82 µM); MIC [20]: 4 µg/mL (≈ 4.67 µM); MIC [21]: > 100 µg/mL; MIC (Escherichia coli SS): 0.78 µg/mL (≈ 0.91 µM); MIC [22]: 0.06 µg/mL (≈ 0.07 µM); MIC (Candida albicans CCH 442): > 100 µg/mL |
